Here are results for two molecules from patent US8097585B2, “Methods of treating inflammation by administration of heme oxygenase-1 and products of heme degradation” (priority 2002, dated 2012).

The test system of assay [1] is jejunal circular muscle strips. Briefly: Jejunal circular muscle contractility after small intestinal transplantation (organ bath). Type of assay: in vivo, LEW rats. The protocol: Small Intestinal Transplantation. Orthotopic small intestinal transplantation (SITx) was performed in syngeneic Lewis rats. SITx with caval drainage was performed using a previously described procedure (Murase et al., in Handbook of Animal Models in Transplantation Research, Cramer et al., Eds. CRC Press, Boca Raton, Fla., pp. 203-213 (1994)). […] The graft was perfused via the aortic segment with 5 ml chilled Ringer's lactate solution, and the intestinal lumen was irrigated with 20 ml of cold saline solution containing 0.5% neomycin-sulfate (Sigma, St. Louis, Mo.). End-to-side anastomoses between the graft aorta and the recipient infrarenal aorta, and between the graft portal vein and recipient vena cava, were performed with 10-0 Novafil™ suture. The cold ischemic time was 1 hour. The entire recipient intestine was removed and the enteric continuity was restored by proximal and distal end-to-end intestinal anastomoses. Recipient animals were given 20 mg/day prophylactic cefamandole nafate for 3 postoperative days. Transplanted recipients were given water 3 hours after surgery, and were fed 24 hours after surgery.
Motility Studies. The effect of administration of biliverdin on treatment on intestinal dysmotility in transplanted grafts was assessed both in vitro and in vivo. […] In vitro circular muscle mechanical activity was measured as previously described (Eskandari et al., Am. J. Physiol. 273(3 Pt 1):G727-34, 1997). Rats were anesthetized and killed by exsanguination 24 hours post-operatively. A segment of mid-jejunum was pinned in a Sylgaard™ lined dissecting dish containing pre-oxygenated Krebs-Ringer-bicarbonate buffer (KRB; in mM: 137.4 Na^+, 5.9 K^+, 2.5 Ca^2+, 1.2 Mg^2+, 134 Cl^−, 15.5 HCO3^−, 1.2 H2PO4^−, and 11.5 glucose) that was equilibrated with 97% O2/3% CO2. […] Contractile activity was calculated by integrating the area under the trace, normalized by converting the weight and length of the strip to square millimeters of tissue (1.03 mg/mm^2), and reported as g/s/mm^2. […]

For assay [2], the system named is recipient splenocytes. Description: Mixed lymphocyte culture with splenocytes of treated cardiac allograft recipients. Type of assay: in vivo, mice. The protocol: Mixed lymphocyte culture (MLC). Irradiated (25Gy, ^137Cs) DBA/2 splenocytes (5×10^5/well) were co-cultured with responders (5×10^5/well) in a 96 well round bottom plates for 3 days at 37° C., 95% air with 5% CO2. When using cells from cardiac recipients as responders, the co-culture period was 3 days without any further in vitro treatment. ^3H-thymidine (1 μCi/well) was added 16 hours before termination of cell culture, and ^3H-thymidine incorporation was measured.
Induction of HO-1 expression or biliverdin administration suppresses the T cell mediated alloimmune response in vivo. […] Recipient splenocytes harvested 5 days after cardiac transplantation were used as responder cells in an in vitro culture with DBA/2 splenocytes as feeder cells. Proliferation was measured at 72 hours (FIG. 9).

In assay [3] the test system is DBA/2 cardiac allografts in B6AF1 recipients. Briefly: Heterotopic cardiac allograft transplantation, graft survival. In kind it is in vivo, mice. The protocol: Animals. Male DBA/2 (H-2^d), B6AF1 (H-2^k/d,b) and FVB (H-2^q) mice were purchased from Jackson Lab. Inc. (Bar Harbor, Me.). They were maintained in the institutional specific-pathogen free facility, which has an appropriate light cycle with free access to water and chow ad libitum, and used for experiments at age of 6-10 weeks.
Cardiac transplantation. DBA2/J and B6AF1 mice were used as donor and recipient, respectively. Heterotopic heart transplantation was carried out according to the procedure of Corry and Russell (Corry et al., Transplant Proc. 5(1):733-5, 1973). […] Secondary heart grafting into the neck was performed using a cuff technique as described previously (Matsuura et al., Transplantation 51(4):896-8, 1991). Briefly, the heart graft was harvested from either DBA2/J (donor strain) or FVB (third-party strain) mice. The right jugular vein and the right common carotid artery of recipient were dissected, and a cuff (polyethylene or polyimide) was connected to these vessels. The graft aorta and pulmonary artery were sleeved over the cuff on the recipient's common carotid artery and the jugular vein, respectively, and fixed with a ligature. After transplantation, beating of the graft was monitored by daily palpation, and scored +1 to +4 according to the strength of graft contractions. Graft rejection was defined as cessation of beating, and was confirmed by direct inspection followed by histological examination.
Donor and recipient mice were treated either with CoPPIX (5 mg/kg/day), ZnPPIX (5 mg/kg/day) or biliverdin (administered once, twice or three times per day at a dose of 50 μmol/kg/dose). All reagents were administered by intraperitoneal (i.p.) injection. Donor animals were treated for 2 days, starting from 2 days before graft harvest (day-2 and day-1). Treatment of recipient mice was initiated one day before transplantation, and continued until 13 days post-transplant (day-1 to day 13). For the experiments using donor splenocyte infusion (DSI) on day-7 (DSI (D-7)), treatments of recipient animals (either with CoPPIX or ZnPPIX) started from day-8 and were terminated on day 6. Recipients received no further treatment. Spleen cells (2×10^7) isolated from DBA/2J mice as described herein were used for DSI treatment. The cells were injected via the penile vein with 200 μl of 0.9% saline solution.
Statistics. Cardiac graft survival was plotted by the Kaplan-Meier method, and a log-rank test was applied to compare statistical significance. Expression levels of HO-1/α-actin protein are expressed as mean±standard deviation. Other data are expressed as mean±standard error of the mean (mean±SEM). Intergroup statistical analysis was performed by one-way ANOVA, and Fisher's PSLD was used for a post-hoc test. A comparison was considered statistically significant when the p-value was <0.05.

The mark [4] stands for this setting: long-term acceptors after biliverdin, second set transplantation, n=3.

“Also recorded” adds a separate entry of the source. Counter-ions that a name gives are not always drawn.

In the case of `C=CC1=C(C)/C(=C/C2=NC(=C\c3[nH]c(/C=C4\NC(=O)C(C)=C4C=C)c(C)c3CCC(=O)O)/C(CCC(=O)O)=C2C)NC1=O` [biliverdin, biliverdin dihydrochloride], the “spontaneous muscle contractile activity” value in assay [1] (control (unoperated) animals treated with BV) was “no change”. In assay [1] (grafts in recipients treated with BV, compared to untreated transplants, 24 hours), the spontaneous contractile activity result is “significantly greater”. Further, the bethanechol-stimulated muscle contractility entry in assay [1] (transplanted animals treated with BV versus untreated graft muscles, 24 hours, listed as BV, dihydrochloride) was “significantly improved; also recorded: Significant improvement”. Further, the “proliferation of recipient splenocytes” value in assay [2] (biliverdin 50 μmol/kg, one dose per day) is “significantly suppressed”. In addition, in assay [2] (biliverdin 50 μmol/kg, three doses per day), the “proliferation of recipient splenocytes” value is listed as “significantly suppressed”. For the same molecule, the “grafts surviving for more than 100 days” value in assay [3] (biliverdin two (every 12 hours) or three (every 8 hours) times per day, 50 μmol/kg per dose, 4 of 6) was found to be 66.7%. Moreover, in assay [3] (setting [4]), the “acceptance of secondary heart graft from the donor strain” value was “more than 60 days” and the “rejection of third party (FVB) graft” value is ≤ 11 days. Besides, in assay [3] (one dose per day i.p. (ZnPPIX 5 mg/kg; biliverdin 50 μmol/kg), untreated 11.5 days), the “graft median survival time (MST)” value amounted to 20.5 days.
Regarding `C=CC1=C(C)c2cc3[n-]c(cc4nc(cc5[n-]c(cc1n2)c(C)c5CCC(=O)[O-])C(CCC(=O)[O-])=C4C)c(C)c3C=C.[Co+2].[H+].[H+]` [CoPP, Cobalt protoporphyrin], in assay [2] (harvested 5 days after cardiac transplantation, 72 hours culture with DBA/2 splenocytes, compared to controls), the “proliferation of recipient splenocytes” value is recorded as “inhibited splenocyte proliferation in a significant manner”. In addition, in assay [3] (5 mg/kg/day i.p., donor from day-2, recipient day-1 to day 13, 2 of 6), the “grafts surviving long-term, >100 days” value stood at 33.3%. In addition, the “MST of the other 4 rejected grafts” value in assay [3] (CoPPIX 5 mg/kg/day i.p.) stood at 18 days. Further, in assay [3] (CoPPIX (donor 2 days, recipient day-8 to day 6) plus DSI (D-7), 7/7), the “allografts surviving over 100 days” value is 100%. The “grafts surviving long-term for more than 100 days” value in assay [3] (CoPPIX together with DSI (D0), 7 of 8) was 87.5%.
